Assay results as given in the NIST ThermoML archive (doi:10.1021/je050416y).

Experiment: xn = mol fraction of the nth substance listed
Settings: 101 kPa, Liquid; for mass density: Vibrating tube method

CCC(C)CO (configuration not stated) [2-methyl-1-butanol] + CCO
Settings	kinematic viscosity [m2/s]	mass density [kg/m3]
293.15 K, x1 = 0.0268	–	790.9
293.15 K, x1 = 0.0549	–	792.1
293.15 K, x1 = 0.0845	–	793.4
293.15 K, x1 = 0.0915	1.66e-06	–
293.15 K, x1 = 0.1156	–	794.7
293.15 K, x1 = 0.1484	–	795.9
293.15 K, x1 = 0.1753	1.8e-06	–
293.15 K, x1 = 0.183	–	797.2
293.15 K, x1 = 0.2524	1.92e-06	–
293.15 K, x1 = 0.2584	–	799.9
293.15 K, x1 = 0.3235	2.04e-06	–
293.15 K, x1 = 0.3433	–	802.7
293.15 K, x1 = 0.3894	2.17e-06	–
293.15 K, x1 = 0.4395	–	805.5
293.15 K, x1 = 0.4505	2.32e-06	–
293.15 K, x1 = 0.5495	–	808.4
293.15 K, x1 = 0.5605	2.67e-06	–
293.15 K, x1 = 0.6567	3.06e-06	–
293.15 K, x1 = 0.6765	–	811.4
293.15 K, x1 = 0.7416	3.47e-06	–
293.15 K, x1 = 0.817	3.92e-06	–
293.15 K, x1 = 0.8247	–	814.5
293.15 K, x1 = 0.8844	4.45e-06	–
293.15 K, x1 = 0.9451	5.14e-06	–
293.15 K, x1 = 1	6.11e-06	817.6
298.15 K, x1 = 0.0268	–	786.6
298.15 K, x1 = 0.0549	–	787.9
298.15 K, x1 = 0.0845	–	789.2
298.15 K, x1 = 0.0915	1.5e-06	–
298.15 K, x1 = 0.1156	–	790.6
298.15 K, x1 = 0.1484	–	791.9
298.15 K, x1 = 0.1753	1.61e-06	–
298.15 K, x1 = 0.183	–	793.2
298.15 K, x1 = 0.2524	1.71e-06	–
298.15 K, x1 = 0.2584	–	796
298.15 K, x1 = 0.3235	1.82e-06	–
298.15 K, x1 = 0.3433	–	798.8
298.15 K, x1 = 0.3894	1.93e-06	–
298.15 K, x1 = 0.4395	–	801.8
298.15 K, x1 = 0.4505	2.06e-06	–
298.15 K, x1 = 0.5495	–	804.8
298.15 K, x1 = 0.5605	2.36e-06	–
298.15 K, x1 = 0.6567	2.69e-06	–
298.15 K, x1 = 0.6765	–	807.9
298.15 K, x1 = 0.7416	3.04e-06	–
298.15 K, x1 = 0.817	3.43e-06	–
298.15 K, x1 = 0.8247	–	811
298.15 K, x1 = 0.8844	3.89e-06	–
298.15 K, x1 = 0.9451	4.49e-06	–
298.15 K, x1 = 1	5.34e-06	814.1
303.15 K, x1 = 0.0268	–	782.3
303.15 K, x1 = 0.0549	–	783.7
303.15 K, x1 = 0.0845	–	785
303.15 K, x1 = 0.0915	1.32e-06	–
303.15 K, x1 = 0.1156	–	786.4
303.15 K, x1 = 0.1484	–	787.8
303.15 K, x1 = 0.1753	1.41e-06	–
303.15 K, x1 = 0.183	–	789.2
303.15 K, x1 = 0.2524	1.5e-06	–
303.15 K, x1 = 0.2584	–	792
303.15 K, x1 = 0.3235	1.59e-06	–
303.15 K, x1 = 0.3433	–	795
303.15 K, x1 = 0.3894	1.68e-06	–
303.15 K, x1 = 0.4395	–	798
303.15 K, x1 = 0.4505	1.8e-06	–
303.15 K, x1 = 0.5495	–	801.1
303.15 K, x1 = 0.5605	2.06e-06	–
303.15 K, x1 = 0.6567	2.35e-06	–
303.15 K, x1 = 0.6765	–	804.2
303.15 K, x1 = 0.7416	2.66e-06	–
303.15 K, x1 = 0.817	3e-06	–
303.15 K, x1 = 0.8247	–	807.4
303.15 K, x1 = 0.8844	3.41e-06	–
303.15 K, x1 = 0.9451	3.94e-06	–
303.15 K, x1 = 1	4.69e-06	810.5
308.15 K, x1 = 0.0268	–	778
308.15 K, x1 = 0.0549	–	779.4
308.15 K, x1 = 0.0845	–	780.9
308.15 K, x1 = 0.0915	1.2e-06	–
308.15 K, x1 = 0.1156	–	782.3
308.15 K, x1 = 0.1484	–	783.8
308.15 K, x1 = 0.1753	1.27e-06	–
308.15 K, x1 = 0.183	–	785.2
308.15 K, x1 = 0.2524	1.34e-06	–
308.15 K, x1 = 0.2584	–	788.1
308.15 K, x1 = 0.3235	1.42e-06	–
308.15 K, x1 = 0.3433	–	791.2
308.15 K, x1 = 0.3894	1.5e-06	–
308.15 K, x1 = 0.4395	–	794.3
308.15 K, x1 = 0.4505	1.6e-06	–
308.15 K, x1 = 0.5495	–	797.5
308.15 K, x1 = 0.5605	1.82e-06	–
308.15 K, x1 = 0.6567	2.07e-06	–
308.15 K, x1 = 0.6765	–	800.7
308.15 K, x1 = 0.7416	2.33e-06	–
308.15 K, x1 = 0.817	2.62e-06	–
308.15 K, x1 = 0.8247	–	803.9
308.15 K, x1 = 0.8844	2.97e-06	–
308.15 K, x1 = 0.9451	3.43e-06	–
308.15 K, x1 = 1	4.08e-06	807.1
313.15 K, x1 = 0.0268	–	773.7
313.15 K, x1 = 0.0549	–	775.2
313.15 K, x1 = 0.0845	–	776.7
313.15 K, x1 = 0.0915	1.08e-06	–
313.15 K, x1 = 0.1156	–	778.2
313.15 K, x1 = 0.1484	–	779.7
313.15 K, x1 = 0.1753	1.14e-06	–
313.15 K, x1 = 0.183	–	781.2
313.15 K, x1 = 0.2524	1.2e-06	–
313.15 K, x1 = 0.2584	–	784.2
313.15 K, x1 = 0.3235	1.26e-06	–
313.15 K, x1 = 0.3433	–	787.3
313.15 K, x1 = 0.3894	1.33e-06	–
313.15 K, x1 = 0.4395	–	790.5
313.15 K, x1 = 0.4505	1.41e-06	–
313.15 K, x1 = 0.5495	–	793.8
313.15 K, x1 = 0.5605	1.6e-06	–
313.15 K, x1 = 0.6567	1.8e-06	–
313.15 K, x1 = 0.6765	–	797
313.15 K, x1 = 0.7416	2.03e-06	–
313.15 K, x1 = 0.817	2.28e-06	–
313.15 K, x1 = 0.8247	–	800.3
313.15 K, x1 = 0.8844	2.58e-06	–
313.15 K, x1 = 0.9451	2.97e-06	–
313.15 K, x1 = 1	3.54e-06	803.6
318.15 K, x1 = 0.0268	–	769.4
318.15 K, x1 = 0.0549	–	771
318.15 K, x1 = 0.0845	–	772.5
318.15 K, x1 = 0.0915	9.8e-07	–
318.15 K, x1 = 0.1156	–	774.1
318.15 K, x1 = 0.1484	–	775.6
318.15 K, x1 = 0.1753	1.03e-06	–
318.15 K, x1 = 0.183	–	777.2
318.15 K, x1 = 0.2524	1.07e-06	–
318.15 K, x1 = 0.2584	–	780.3
318.15 K, x1 = 0.3235	1.13e-06	–
318.15 K, x1 = 0.3433	–	783.5
318.15 K, x1 = 0.3894	1.19e-06	–
318.15 K, x1 = 0.4395	–	786.8
318.15 K, x1 = 0.4505	1.25e-06	–
318.15 K, x1 = 0.5495	–	790.1
318.15 K, x1 = 0.5605	1.41e-06	–
318.15 K, x1 = 0.6567	1.59e-06	–
318.15 K, x1 = 0.6765	–	793.4
318.15 K, x1 = 0.7416	1.78e-06	–
318.15 K, x1 = 0.817	2e-06	–
318.15 K, x1 = 0.8247	–	796.7
318.15 K, x1 = 0.8844	2.26e-06	–
318.15 K, x1 = 0.9451	2.6e-06	–
318.15 K, x1 = 1	3.09e-06	800.1
323.15 K, x1 = 0.0268	–	765.1
323.15 K, x1 = 0.0549	–	766.7
323.15 K, x1 = 0.0845	–	768.3
323.15 K, x1 = 0.0915	8.59e-07	–
323.15 K, x1 = 0.1156	–	769.9
323.15 K, x1 = 0.1484	–	771.5
323.15 K, x1 = 0.1753	8.96e-07	–
323.15 K, x1 = 0.183	–	773.1
323.15 K, x1 = 0.2524	9.37e-07	–
323.15 K, x1 = 0.2584	–	776.3
323.15 K, x1 = 0.3235	9.83e-07	–
323.15 K, x1 = 0.3433	–	779.6
323.15 K, x1 = 0.3894	1.04e-06	–
323.15 K, x1 = 0.4395	–	782.9
323.15 K, x1 = 0.4505	1.1e-06	–
323.15 K, x1 = 0.5495	–	786.3
323.15 K, x1 = 0.5605	1.23e-06	–
323.15 K, x1 = 0.6567	1.39e-06	–
323.15 K, x1 = 0.6765	–	789.7
323.15 K, x1 = 0.7416	1.56e-06	–
323.15 K, x1 = 0.817	1.75e-06	–
323.15 K, x1 = 0.8247	–	793.2
323.15 K, x1 = 0.8844	1.98e-06	–
323.15 K, x1 = 0.9451	2.28e-06	–
323.15 K, x1 = 1	2.72e-06	796.6
